Drawing on US5686424A, “2-oxoethyl derivatives as immunosuppressants” (Miles Inc., priority 1995, dated 1997), this text covers IC50 for eight molecules.

pIC50: −log10 of the molar value. Like-named read-outs stand apart in the source and are kept apart here.

In one assay the test system is human T-cells. In words: Suppression of Human T-Cell Proliferation Assay (PHA-stimulated, [3H]-thymidine incorporation). The conditions noted are these: TABLE 2. It counts as cell-based. Summed up: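 Read-out is scintillation counting of [3H]-thymidine pulsed for the last 6 h of a 72 h, 37° C culture. Human T-cells, isolated from LeukoPaks by Lymphoprep and sheep-erythrocyte rosetting, were PHA-M activated (40 μg/ml stock) with compound dilutions added in duplicate wells.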
In general terms: Dividing cells build labelled thymidine or BrdU into new DNA.

The target of another assay is FKBP (Homo sapiens, UniProt P62942). As to the kind of experiment: PPIase Inhibition Assay. Particulars: concentration of inhibitor required for 50% inhibition of enzyme activity; FKBP, substrate Succinyl-Ala-Phe-Pro-Phe-para-nitroanilide; TABLE I. It counts as biochemical. Summed up:
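Rates from p-nitroaniline release at 390 nm over 90 sec, fitted first-order, were converted to % activity remaining relative to uncatalyzed and uninhibited rates, with IC50 from linear regression of V-/V+ against inhibitor level. FKBP acted on Suc-Ala-Phe-Pro-Phe-pNA with excess chymotrypsin, HEPES pH 7.8, cold buffer.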

[1] abbreviates: read-out: concentrations that suppress the T-cell proliferative response by 50%.
Where [2] appears, read: concentration inhibiting [3H]-thymidine incorporation of PHA-stimulated T-cells by 50%, 72 hours, read-out: IC50.

FKBP, sequence (P62942 whole entry): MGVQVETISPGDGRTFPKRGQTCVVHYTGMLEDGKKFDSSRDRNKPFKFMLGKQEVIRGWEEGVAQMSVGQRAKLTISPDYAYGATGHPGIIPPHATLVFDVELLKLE

For `CC[C@H](C)[C@H](NC(=O)[C@@H]1CCCN1CC(=O)NC12CC3CC(CC(C3)C1)C2)C(=O)NCc1ccccc1` [Example 39, L-Isoleucine, N-[1-(2-Aminoadamant-1-yl-2-oxoethyl)-L-Prolyl] Benzylamide], the pIC50 in the assay on human T-cells (setting [1]) is greater than 5.00; with human T-cells (setting [2]) it was 5.22; at FKBP, 4.82.

Regarding `CC[C@H](C)[C@H](NC(=O)[C@@H]1CCCN1CC(=O)C1CC2CC(C1C)C2(C)C)C(=O)NCc1ccccc1` (stereo partly drawn) [Example 41, L-Isoleucine, N-[1-[2-(2,6,6-Trimethyl-Bicyclo[3.1.1]hept-3-yl)-2-Oxoethyl]-L-Prolyl] Benzylamide], the pIC50 with human T-cells (setting [1]) is greater than 5.00; in the assay with human T-cells (setting [2]) it was 5.22; on FKBP, greater than 5.30.

Turning to `O=C(NCc1ccccc1)[C@H](COCc1ccccc1)NC(=O)[C@@H]1CCCN1CC(=O)C12CC3CC(CC(C3)C1)C2` [Example 62, L-Serine-(O-Benzyl Ether), N-[1-(2-Adamantan-1-yl-2-Oxoethyl)-L-Prolyl] Benzylamide], the pIC50 is greater than 5.00 in the assay on human T-cells (setting [1]), 5.40 with human T-cells (setting [2]) and 5.89 against FKBP.

With `O=C(CC(NC(=O)[C@@H]1CCCN1CC(=O)C12CC3CC(CC(C3)C1)C2)c1ccccc1)NCc1ccccc1` (stereo partly drawn) [Example 63, L-β-Phenylalanine, N-[1-(2-Adamantan-1-yl-2-Oxoethyl)-L-Prolyl] Benzylamide], the pIC50 is greater than 5.00 in the assay on human T-cells (setting [1]), 5.22 in the assay with human T-cells (setting [2]) and 6.52 at FKBP.

As for `CC[C@H](C)[C@H](NC(=O)[C@@H]1CCCN1CC(=O)C12CC3CC(CC(C3)C1)C2)C(=O)N[C@H](C)c1ccccc1` [Example 66, L-Isoleucine, N-[1-(2-Adamantan-1-yl-2-Oxoethyl)-L-Prolyl] alpha-(R)-methylbenzylamide], the values for the pIC50 with human T-cells (setting [1]), in the assay with human T-cells (setting [2]) and against FKBP were greater than 5.00, 5.52 and 7.00, respectively.

In the case of `CC[C@H](C)[C@H](NC(=O)[C@@H]1CCCN1CC(=O)NC1C2CC3CC(C2)CC1C3)C(=O)NCc1ccccc1` (stereo partly drawn) [Example 90, L-Isoleucine, N-[1-(Adamantan-2-ylcarbamoylmethyl)-L-Prolyl] Benzylamide], the pIC50 was greater than 5.00 in the assay with human T-cells (setting [1]), 5.22 with human T-cells (setting [2]) and greater than 5.30 on FKBP.

In the case of `CC[C@H](C)[C@H](NC(=O)[C@@H]1CCCN1CC(=O)O[C@H](c1ccccc1)C(C)C)C(=O)NCc1ccccc1` [Example 92, L-Isoleucine, N-[1-(2-(2-Methyl-1-(S)-Phenyl-1-Propoxy)-2-Oxoethyl)-L-Prolyl] Benzylamide], the values for the pIC50 with human T-cells (setting [1]), in the assay with human T-cells (setting [2]) and at FKBP were greater than 5.00, 5.22 and 6.22, respectively.

Turning to `CC[C@H](C)[C@H](NC(=O)[C@@H]1CCCN1CC(=O)O[C@@H](c1ccccc1)C(C)C)C(=O)NCc1ccccc1` [Example 93, L-Isoleucine, N-[1-(2-(2-Methyl-1-(R)-Phenyl-1-Propoxy)-2-Oxoethyl)-L-Prolyl] Benzylamide], the pIC50 with human T-cells (setting [1]) was greater than 5.00; with human T-cells (setting [2]), 5.22; at FKBP it was 5.92.
